Patent publication US8188135B2, “Compounds as cannabinoid receptor ligands” (priority 2008, dated 2012)

Legend:
Rat CB1 = target: T1, Rat CB1 (Rattus norvegicus, UniProt P20272); experiment: rat CB1 cyclase functional assay (HitHunter cAMP); assay type: cell-based; settings: Rat CB1 cyclase (EC50, nM), HEK cells, forskolin 37 μM
T1 construct: expressed in transfected cells; host or cells: HEK
Method in brief: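 HEK cells expressing rat CB1 or CB2, 10,000 cells/well, incubated 20 min at 37° C with test ligands plus forskolin (37 μM for CB1, 18 μM for CB2) in DPBS with 0.01% BSA. cAMP read by enzyme-complementation luminescence after lysis; EC50 from sigmoidal dose-response fit.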

rat CB2 [1] = target: T2, rat CB2 (Rattus norvegicus, UniProt Q9QZN9); experiment: rat CB2 cyclase functional assay (HitHunter cAMP); assay type: cell-based; set-up: expressed in transfected cells; host or cells: HEK; settings: rat CB2 cyclase (EC50, nM), HEK cells, forskolin 18 μM
T2 sequence (Q9QZN9 1-360): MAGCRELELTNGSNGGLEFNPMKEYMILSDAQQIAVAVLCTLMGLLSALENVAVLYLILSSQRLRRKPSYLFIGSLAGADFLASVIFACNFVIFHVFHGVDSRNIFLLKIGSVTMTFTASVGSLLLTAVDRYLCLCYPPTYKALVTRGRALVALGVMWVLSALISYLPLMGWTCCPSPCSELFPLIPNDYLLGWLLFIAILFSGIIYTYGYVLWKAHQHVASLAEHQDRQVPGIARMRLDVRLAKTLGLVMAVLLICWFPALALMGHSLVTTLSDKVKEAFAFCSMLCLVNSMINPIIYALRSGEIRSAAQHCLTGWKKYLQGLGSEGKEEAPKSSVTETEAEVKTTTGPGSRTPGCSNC
Description: The cyclase functional assays were performed using the HitHunter™ cAMP assay kit from DiscoveRx (Fremont, Calif.) according to vendor's protocol. Briefly, HEK cells expressing CB2 or CB1 receptors (rat or human) were detached using cell dissociation buffer (Invitrogen, Carlsbad, Calif.), dispersed and placed in suspension at 10,000 cells per well in 96 well plates prior to the assay. Cell suspensions were incubated at 37° C. for 20 min with variable concentrations of test ligands and or 10 μM CP 55,940-positive control in the presence of a fixed concentration of forskolin (18 μM for rat CB2 and 37 μM for rat CB1) in Dulbescco's phosphate-buffered saline (Invitrogen, Carlsbad, Calif.) supplemented with bovine serum albumin (0.01% final concentration). The reactions were terminated by the addition of lysis buffer and the luminescence was detected following the procedure according to the manufacturer's instructions. EC50 values were calculated using sigmoidal dose-response curve fitting from Prism (GraphPad).

human CB2 receptors = target: T3, human CB2 receptors (Homo sapiens, UniProt P34972); experiment: human CB2 radioligand binding assay ([3H]CP 55,940 competition); settings: human CB2 (Ki, nM), HEK293 membranes, 0.5 nM [3H]CP 55,940
T3 construct: expressed in transfected cells; host or cells: HEK293
T3 sequence (P34972 whole entry): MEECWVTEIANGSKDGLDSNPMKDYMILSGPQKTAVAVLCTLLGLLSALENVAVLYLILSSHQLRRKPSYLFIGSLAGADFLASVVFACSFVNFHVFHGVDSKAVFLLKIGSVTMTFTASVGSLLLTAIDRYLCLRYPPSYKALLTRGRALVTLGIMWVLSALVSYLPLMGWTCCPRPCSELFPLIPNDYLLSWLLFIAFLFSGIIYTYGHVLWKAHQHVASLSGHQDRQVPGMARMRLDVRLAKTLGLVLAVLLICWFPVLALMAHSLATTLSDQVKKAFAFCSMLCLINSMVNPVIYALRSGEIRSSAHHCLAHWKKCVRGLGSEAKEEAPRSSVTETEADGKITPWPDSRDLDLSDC
Method in brief: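 Displacement of 0.5 nM [3H]CP 55,940 over 0.01 nM-10 μM test compound, measured on human CB2 membranes from stably transfected HEK293 cells. Incubation 90 min at 30 °C in Tris/EDTA/MgCl2/BSA, pH 7.4, then filter-bound radioactivity counted; 10 μM unlabeled CP 55,940 defined nonspecific binding.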

rat CB2 [2] = target: T2, rat CB2; experiment: rat CB2 radioligand binding assay ([3H]CP 55,940 competition); set-up: expressed in transfected cells; host or cells: HEK293; settings: rat CB2 (Ki, nM), HEK293 membranes, 0.5 nM [3H]CP 55,940
Method in brief: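 Competition binding against 0.5 nM [3H]CP 55,940 (pH 7.4 buffer with 0.5 mg/mL BSA, 30 °C, 45 min), with displacers spanning 0.01 nM–10 μM at five concentrations. Receptor source: stably transfected HEK293 membranes, 20 μg/well. Nonspecific binding defined by 10 μM unlabeled CP 55,940; readout by filtration and counting.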

T1 sequence (P20272 whole entry): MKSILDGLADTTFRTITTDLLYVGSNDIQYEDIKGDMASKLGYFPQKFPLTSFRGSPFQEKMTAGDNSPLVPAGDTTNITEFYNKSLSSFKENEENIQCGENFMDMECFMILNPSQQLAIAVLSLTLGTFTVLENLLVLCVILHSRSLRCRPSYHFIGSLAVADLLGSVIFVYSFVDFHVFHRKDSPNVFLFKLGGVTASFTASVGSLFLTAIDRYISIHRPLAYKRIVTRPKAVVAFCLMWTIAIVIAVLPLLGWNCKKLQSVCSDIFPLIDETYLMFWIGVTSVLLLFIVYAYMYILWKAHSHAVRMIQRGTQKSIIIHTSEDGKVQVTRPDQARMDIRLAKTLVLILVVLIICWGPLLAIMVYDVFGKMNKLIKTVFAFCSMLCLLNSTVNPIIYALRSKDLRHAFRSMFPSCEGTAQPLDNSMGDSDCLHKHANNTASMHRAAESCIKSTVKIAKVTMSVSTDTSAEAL

Row | Structure (SMILES) | EC50 (Rat CB1) | EC50 (rat CB2 [1]) | Ki (human CB2 receptors) | Ki (rat CB2 [2])
1 | Cn1c(C(C)(C)C)c/c(=N\C(=O)c2cc(C(F)(F)F)ccc2OC[C@@H]2COC(C)(C)O2)n1C[C@H]1CCCO1 [Example 16, N-{(3E)-5-tert-butyl-1-methyl-2-[(2R)-tetrahydrofuran-2-ylmethyl]-1,2-dihydro-3H-pyrazol-3-ylidene}-2-{[(4R)-2,2-dimethyl-1,3-dioxolan-4-yl]methoxy}-5-(trifluoromethyl)benzamide] | > 27000 nM | 0.47 nM | 40 nM | 23 nM
2 | Cn1c(C(C)(C)C)c/c(=N\C(=O)c2cc(C(F)(F)F)ccc2OC[C@@H]2CCCO2)n1CC1CC1 [Example 27, N-[(3E)-5-tert-butyl-2-(cyclopropylmethyl)-1-methyl-1,2-dihydro-3H-pyrazol-3-ylidene]-2-[(2S)-tetrahydrofuran-2-ylmethoxy]-5-(trifluoromethyl)benzamide] | 3370 nM | 0.2 nM | 23 nM | 9.4 nM
3 | CC1CCC(COc2ccc(C(F)(F)F)cc2C(=O)N=c2cc(C(C)(C)C)n(C)n2CC2CCCO2)O1 (single isomer, unassigned) [Example 36] | 8410 nM | 2.7 nM | 74 nM | 108 nM
4 | CC(C)(C)c1cn(C[C@H]2CCCO2)/c(=N/C(=O)c2cc(C(F)(F)F)ccc2OCCN2CCCC2)o1 [Example 77, N-[(2Z)-5-tert-butyl-3-[(2R)-tetrahydrofuran-2-ylmethyl]-1,3-oxazol-2(3 H)-ylidene]-2-(2-pyrrolidin-1-ylethoxy)-5-(trifluoromethyl)benzamide] | 2560 nM | 0.1 nM | 96 nM | 73 nM
5 | Cn1c(C(C)(C)C)c/c(=N\C(=O)c2cc(C(F)(F)F)ccc2OC[C@H]2CCCO2)n1C[C@H]1CCCO1 [Example 1, N-{(3E)-5-tert-butyl-1-methyl-2-[(2R)-tetrahydrofuran-2-ylmethyl]-1,2-dihydro-3H-pyrazol-3-ylidene}-2-[(2R)-tetrahydrofuran-2-ylmethoxy]-5-(trifluoromethyl)benzamide] | 5510 nM | 1.1 nM | 51 nM | 23 nM
6 | CCCCn1nc(C(C)(C)C)s/c1=N\C(=O)c1cc(C(F)(F)F)ccc1OCC1CCCCN1C (centres unmarked) [Example 7, N-[(2Z)-3-butyl-5-tert-butyl-1,3,4-thiadiazol-2(3H)-ylidene]-2-[(1-methylpiperidin-2-yl)methoxy]-5-(trifluoromethyl)benzamide] | 1060 nM | 2.9 nM | 2.5 nM | 2.5 nM
7 | Cn1c(C(C)(C)C)c/c(=N\C(=O)c2cc(C(F)(F)F)ccc2OC[C@H]2OCC[C@H]2F)n1C[C@H]1CCCO1 [Example 24] | 9200 nM | 0.28 nM | 16 nM | 20 nM
8 | Cn1c(C(C)(C)C)c/c(=N\C(=O)c2cc(C(F)(F)F)ccc2OC[C@@H]2CCN2S(C)(=O)=O)n1CC1CC1 [Example 63, N-[(3E)-5-tert-butyl-2-(cyclopropylmethyl)-1-methyl-1,2-dihydro-3H-pyrazol-3-ylidene]-2-{[(2S)-1-(methylsulfonyl)azetidin-2-yl]methoxy}-5-(trifluoromethyl)benzamide] | > 27000 nM | 2.5 nM | 301 nM | 139 nM
